From PMC5454392, “Selective BET bromodomain inhibition as an antifungal therapeutic strategy” (Nature Communications, 2017)
Entries after “also recorded” stand apart in the source; their conditions may differ. Where two headings read alike, the source gives them in different places.

Legend:
CaBdf1 BD1 [1] = target: T1, CaBdf1 BD1 (Candida albicans, UniProt Q5A4W8); test: Isothermal titration calorimetry (ITC); assay type: binding
T1 construct: made in house; host or cells: E. coli BL21(DE3)
Protocol: (§1) Proteins used for crystallization and for ITC. […] Cells were resuspended in buffer A (50 mM Tris-HCl pH 7.5, 300 mM NaCl, 10% glycerol, 25 mM imidazole, 5 mM β-mercaptoethanol and protease inhibitors) and lysed by sonication. The cleared lysate was incubated with Ni-NTA resin (Qiagen) and washed with buffer A containing 0.5 M NaCl. Proteins were eluted with 250 mM imidazole, dialysed overnight in the presence of His-tagged TEV protease against buffer A containing no imidazole and incubated with Ni-NTA resin to remove His-tagged species. Proteins were further purified on a Superdex 75 10/300 (GE Healthcare) column in 50 mM Hepes pH 7.5, 150 mM NaCl, 0.5 mM dithiothreitol (DTT). Proteins were concentrated to >20 mg ml^−1 on a Centricon device (Millipore) and used for ITC, TSA and crystallization experiments. […] Expression and purification were performed as above, except that buffer A was replaced by buffer B (50 mM Hepes pH 7.5, 500 mM NaCl, 5% glycerol, 5 mM imidazole and protease inhibitors) and gel filtration was performed in 10 mM Hepes pH 7.5, 500 mM NaCl and 5% glycerol.
(§2) Calorimetric experiments were performed on a NanoITC calorimeter (TA Instruments) at 25 °C while stirring at 250 r.p.m. All proteins were buffer exchanged by gel filtration into 50 mM Hepes pH 7.5, 150 mM NaCl, 0.5 mM DTT, except for SMARCA2 and SMARCA4A BDs, which were exchanged into 10 mM Hepes pH 7.5, 500 mM NaCl and 5% glycerol. […] Titrations consisted of an initial injection of 1.5 μl followed by 19 identical injections of 2.5 μl made at time intervals of 5 min. ITC data were corrected for the heat of dilution of injectant into buffer and analysed with software provided by the manufacturer using a single binding site model. The first data point was excluded from the analysis. Thermodynamic parameters determined from the ITC data are summarized in Supplementary Table 1.

SMARCA2 BD [2] = target: T2, SMARCA2 BD (Homo sapiens, UniProt P51531); test: Isothermal titration calorimetry (ITC); assay type: binding
T2 construct: Human SMARCA2 and SMARCA4 BD plasmids bearing an N-terminal His tag and TEV protease site; His tag with TEV site (N, cleaved yes); 73250; host or cells: E. coli BL21(DE3)
T2 sequence (P51531 1378-1506 limits assumed): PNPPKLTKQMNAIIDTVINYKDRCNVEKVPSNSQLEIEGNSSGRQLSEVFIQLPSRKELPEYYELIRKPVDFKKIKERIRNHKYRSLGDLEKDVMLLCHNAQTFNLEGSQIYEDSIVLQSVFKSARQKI
Protocol: as §1, §2

SMARCA4 BD = target: T3, SMARCA4 BD (Homo sapiens, UniProt P51532); test: Isothermal titration calorimetry (ITC); assay type: binding
T3 construct: Human SMARCA2 and SMARCA4 BD plasmids bearing an N-terminal His tag and TEV protease site; His tag with TEV site (N, cleaved yes); 74664; host or cells: E. coli BL21(DE3)
T3 sequence (P51532 1453-1564 limits assumed): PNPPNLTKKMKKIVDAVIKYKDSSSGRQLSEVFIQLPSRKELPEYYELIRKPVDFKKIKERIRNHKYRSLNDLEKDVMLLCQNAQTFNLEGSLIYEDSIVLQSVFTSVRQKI
Protocol: as §1, §2

[3] = system: 32 representative human (BET and non-BET) BDs; test: BROMOscan profiling (DiscoverX); assay type: binding; details: 10 μM; 35% of control used as cutoff for significant inhibition
Protocol: (§3) BROMOscan profiling was performed by DiscoverX (Fremont, CA, USA). […] Ligand-loading densities were optimized as described.

SMARCA2 BD [4] = target: T2, SMARCA2 BD; test: BROMOscan profiling (DiscoverX); assay type: binding; details: as read by reviewer from the BROMOscan data
Protocol: as §3

C. albicans = C. albicans growth assay in liquid media; assay type: cell-based; details: for antifungal activity against mutant strains in which either BD1 or BD2 was inactivated (in words): liquid media, WT allele repressed
Protocol: Growth on liquid media. C. albicans strains were grown at 30 °C in SC medium to an OD600 of 0.5–0.8. For the evaluation of growth defects related to Bdf1 mutations, log-phase growing cells were counted using a Neubauer chamber and diluted in liquid media to a final concentration of 5,400 cells per ml per well in a sterile 96-well plate. Dox (50 μg ml^−1) or methionine (5 mM)/cysteine (0.25 mM) were added to the media if required. Plates were incubated at 30 °C and OD600 was measured using a Multiskan FC Microplate Photometer (Thermo Fisher). For the evaluation of chemical compounds, strains were grown in SC medium supplemented with 50 μg ml^−1 Dox or 5 mM methionine/0.25 mM cysteine 24 h before counting and then seeded in 96-well plates at the same concentration as mentioned above, with or without chemical compounds. Statistical tests were performed using two-sided Welch t-tests.

CaBdf1 BD1 [5] = target: T1, CaBdf1 BD1; assay type: binding; details: CaBdf1 BD1 WT; for Peptide array signal, raw data, Left: left replicate array; for Peptide array signal, raw data, Rigt: right replicate array
Protocol: (§4) In short, arrays were blocked and incubated with 1 μM of purified CaBdf1 BD1 or BD2. Arrays were incubated with recombinant BDs for 2 h at 4 °C in binding buffer (Tris-HCl 50 mM pH 7.4, NP-40 0.1%, NaCl 150 mM, glycerol 10%). […] Assays were performed in duplicate.

CaBdf1 BD1 Y248F = target: T4, CaBdf1 BD1 Y248F (Candida albicans, UniProt Q5A4W8, Y248F); test: Histone peptide microarray binding, YF mutant; design: species or system C. albicans; details: CaBdf1 BD1 YF mutant; for Peptide array signal, raw data, Left: left replicate array; for Peptide array signal, raw data, Right: right replicate array
T4 construct: made in house; host or cells: E. coli BL21(DE3), inferred from the wild-type GST construct
T4 sequence (Q5A4W8 193-327 Y248F): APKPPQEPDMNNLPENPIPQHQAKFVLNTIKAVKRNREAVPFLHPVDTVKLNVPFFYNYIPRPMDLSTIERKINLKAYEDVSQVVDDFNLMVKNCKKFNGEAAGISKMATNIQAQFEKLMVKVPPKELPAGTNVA
Protocol: as §4, with “duplicate. Images were acquired on a Bio-Rad ChemiDoc XRS Imaging machine and data were quantified using the array analyser software provided by Active Motif.” for “duplicate.”

CaBdf1 BD2 Y425F = target: T5, CaBdf1 BD2 Y425F (Candida albicans, UniProt Q5A4W8, Y425F); test: Histone peptide microarray binding, YF mutant; design: species or system C. albicans; details: CaBdf1 BD2 YF mutant; for Peptide array signal, raw data, Left: left replicate array; for Peptide array signal, raw data, Right: right replicate array
T5 construct: made in house; host or cells: E. coli BL21(DE3), inferred from the wild-type GST construct
T5 sequence (Q5A4W8 361-501 Y425F): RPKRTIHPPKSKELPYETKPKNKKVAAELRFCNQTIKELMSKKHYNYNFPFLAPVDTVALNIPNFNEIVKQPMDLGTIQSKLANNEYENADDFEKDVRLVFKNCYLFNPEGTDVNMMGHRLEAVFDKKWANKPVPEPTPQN
Protocol: as §4, with “duplicate. Images were acquired on a Bio-Rad ChemiDoc XRS Imaging machine and data were quantified using the array analyser software provided by Active Motif.” for “duplicate.”

CaBdf1 BD2 [6] = target: T6, CaBdf1 BD2 (Candida albicans, UniProt Q5A4W8); test: HTRF assay, inhibition of BD binding to H4ac4 peptide; design: made in house; host or cells: E. coli BL21(DE3)
Target sequence in this assay (Q5A4W8 361-501): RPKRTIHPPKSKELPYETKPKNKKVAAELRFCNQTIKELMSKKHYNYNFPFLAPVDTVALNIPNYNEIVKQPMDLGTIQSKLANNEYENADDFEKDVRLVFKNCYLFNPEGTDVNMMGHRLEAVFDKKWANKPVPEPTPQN

CaBdf1 BD2 [7] = target: T6, CaBdf1 BD2; assay type: binding; design: made in house; host or cells: E. coli BL21(DE3); details: CaBdf1 BD2 WT; for Peptide array signal, raw data, Left: left replicate array; for Peptide array signal, raw data, Rigt: right replicate array
Protocol: as §4
Target sequence in this assay (Q5A4W8 361-501): as above

CaBdf1 BD2 [8] = target: T6, CaBdf1 BD2; test: Isothermal titration calorimetry (ITC); assay type: binding; design: His tag with TEV site (N, cleaved yes); made in house; host or cells: E. coli BL21(DE3)
Protocol: as §1, §2
Target sequence in this assay (Q5A4W8 386-491): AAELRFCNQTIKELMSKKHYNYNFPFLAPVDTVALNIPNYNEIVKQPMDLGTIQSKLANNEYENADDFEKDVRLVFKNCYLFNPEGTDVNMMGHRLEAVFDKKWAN

human Brd4 BD1 [9] = target: T7, human Brd4 BD1 (Homo sapiens, UniProt O60885); test: BROMOscan profiling (DiscoverX); assay type: binding; design: purchased DiscoverX; host or cells: T7 phage grown in an E. coli host derived from BL21; details: 10 μM; as read by reviewer from the BROMOscan data
Protocol: as §3

human Brd4 BD1 [10] = target: T7, human Brd4 BD1; test: HTRF assay, inhibition of BD binding to H4ac4 peptide; design: human Brd4 BD1 (residues 22–204); His tag with TEV site (N, cleaved yes); made in house; host or cells: E. coli BL21(DE3)
human Brd4 BD1 [11] = target: T7, human Brd4 BD1; test: Isothermal titration calorimetry (ITC); assay type: binding; design: human Brd4 BD1 (residues 22–204); His tag with TEV site (N, cleaved yes); made in house; host or cells: E. coli BL21(DE3)
Protocol: as §1, §2

CaBdf1 BD1 [12] = target: T1, CaBdf1 BD1; test: HTRF assay, inhibition of BD binding to H4ac4 peptide; design: species or system C. albicans; details: for IC50: H4ac4 peptide, read-out: IC50
human Brd4 BD2 = target: T8, human Brd4 BD2 (Homo sapiens, UniProt O60885); test: as above
T8 construct: GST-tagged human Brd4 BD2 (residues 349–460) was purchased from Reaction Biology Corp; purchased Reaction Biology Corp

T1 sequence (Q5A4W8 193-327): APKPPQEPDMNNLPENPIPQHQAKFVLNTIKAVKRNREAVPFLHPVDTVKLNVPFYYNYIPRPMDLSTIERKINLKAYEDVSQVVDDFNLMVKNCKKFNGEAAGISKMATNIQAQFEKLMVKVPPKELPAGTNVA

SMILES	N (stoichiometry) (CaBdf1 BD1 [1]; ITC, 25 °C)	TΔS (CaBdf1 BD1 [1]; ITC, 25 °C) [kcal/mol]	ΔH (CaBdf1 BD1 [1]; ITC, 25 °C) [kcal/mol]	binding to SMARCA2 BD (in words) (SMARCA2 BD [2])	binding to SMARCA4 BD (in words) (SMARCA4 BD)	activity against human BDs in BROMOscan (in words) [3]	antifungal activity against mutant strains in which either BD1 or BD2 was inactivated (in words) (C. albicans)	Peptide array signal, Normalized (0 to 100%), Average (CaBdf1 BD1 [5]) [%]	Peptide array signal, raw data, Left (CaBdf1 BD1 [5])	Peptide array signal, raw data, Rigt (CaBdf1 BD1 [5])	Peptide array signal, raw data, Left (CaBdf1 BD1 Y248F)	Peptide array signal, raw data, Right (CaBdf1 BD1 Y248F)	Peptide array signal, raw data, Left (CaBdf1 BD2 Y425F)	Peptide array signal, raw data, Right (CaBdf1 BD2 Y425F)	Peptide array signal, Normalized (0 to 100%), Average (CaBdf1 BD2 [7]) [%]	Peptide array signal, raw data, Left (CaBdf1 BD2 [7])	Peptide array signal, raw data, Rigt (CaBdf1 BD2 [7])	IC50 (CaBdf1 BD1 [12]; HTRF) [µM]	also measured
O=C1c2ccccc2Sc2cc(-c3noc(-c4cnccn4)n3)ccc2N1C1CC1 [Compound 1]	0.91 ± 0.06	4.885	-2.34 ± 0.621	no detectable binding; also recorded: did not detectably bind	no detectable binding; also recorded: did not detectably bind	no significant inhibition was detected; also recorded: no significant activity; also recorded: do not significantly inhibit	little antifungal activity; also recorded: did not significantly inhibit growth	0	0	0.003741	0	0.001715	0	0.001456	0.259	0.004804	0.01167		inhibition at 10 µM (SMARCA2 BD [4]): ~65%; inhibition of CaBdf1 BD2 (in words) (CaBdf1 BD2 [6]; HTRF): no or only modest binding and inhibition; binding to CaBdf1 BD2 (in words) (CaBdf1 BD2 [8]; ITC): no or only modest binding and inhibition; inhibition in BROMOscan (in words) (human Brd4 BD1 [9]): hardly inhibits; IC50 (human Brd4 BD1 [10]; HTRF, H4ac4 peptide): ~40 µM; inhibition of Brd4 BD1 (in words) (human Brd4 BD1 [10]; HTRF, highest concentration 20 μM): no or only modest binding and inhibition; binding to Brd4 BD1 (in words) (human Brd4 BD1 [11]; ITC): no or only modest binding and inhibition
Cc1ccc(Nc2c(-c3ccc(O)cc3)nc3c(C)cccn23)cc1 [Compound 2]				no detectable binding; also recorded: no significant inhibition	no detectable binding; also recorded: no significant inhibition	no significant inhibition was detected; also recorded: do not significantly inhibit	little antifungal activity	0.0725	0.0005345	0.004276	0.003429	0.002743	0.0004854	0.002427	0.37	0.005491	0.01304	≥ 40	IC50 (human Brd4 BD2): ≥ 40 µM; IC50 (CaBdf1 BD2 [6]): 1.1 µM; Kd (CaBdf1 BD2 [8]): 2.1 µM; N (stoichiometry) (CaBdf1 BD2 [8]; ITC, 25 °C): 1.21 ± 0.11; TΔS (CaBdf1 BD2 [8]; ITC, 25 °C): 2.01 kcal/mol; ΔG (CaBdf1 BD2 [8]; ITC, 25 °C): -7.741 kcal/mol; ΔH (CaBdf1 BD2 [8]; ITC, 25 °C): -5.74 ± 0.96 kcal/mol
CN1C(=O)c2ccccc2Sc2cc(NC(=O)C3CCCO3)ccc21 (stereo not shown) [Compound 3]	1.05 ± 0.03	0.44	-6.81 ± 0.12					0.0363	0.001069	0.003207	0.004458	0.001715	0.001942	0.002427	0.296	0.005491	0.01167	1.7 ± 0.6	inhibition of CaBdf1 BD1 (in words) (CaBdf1 BD1 [12]; HTRF): low-micromolar affinity; IC50 for Brd4 BD1 relative to IC50 for CaBdf1 BD1 (CaBdf1 BD1 [12]; HTRF IC50 ratio): 7 fold; Kd (CaBdf1 BD1 [1]): 4.8 ± 0.2 µM; ΔG (CaBdf1 BD1 [1]; ITC, 25 °C): -7.251 kcal/mol; EC50 (C. albicans; Candida albicans, read-out: cellular EC50): 35 ± 7 µM; growth of strains expressing WT Bdf1 or Bdf1 inactivated in BD1 (functional BD2) (in words) (C. albicans; liquid culture, Met/Cys or Dox): little effect; also recorded: insensitive; growth of strains inactivated in BD2 (bdf1-bd2Δ, bdf1-Y425F) (in words) (C. albicans; liquid culture, Met/Cys or Dox): significantly inhibited; also recorded: compromises the in vitro growth; also recorded: sensitive; IC50 (human Brd4 BD1 [10]): 12.5 ± 0.8 µM; Kd (human Brd4 BD1 [11]): 13.4 ± 1.7 µM; N (stoichiometry) (human Brd4 BD1 [11]; ITC, 25 °C): 0.92 ± 0.03; TΔS (human Brd4 BD1 [11]; ITC, 25 °C): 3.107 kcal/mol; ΔG (human Brd4 BD1 [11]; ITC, 25 °C): -6.644 kcal/mol; ΔH (human Brd4 BD1 [11]; ITC, 25 °C): -3.54 ± 0.454 kcal/mol
